System: MV-4-11 cells
Assay: Gene expression microarray analysis (Affymetrix PrimeView) and GSEA
Format: cell-based, human
Parameters: RFU PODN (11730768_x_at) / Fold change /veh PODN (11730768_x_at) / RFU LINC00158 (11744669_a_at) / Fold change /veh LINC00158 (11744669_a_at) / RFU DUSP10 (11751237_a_at) / Fold change /veh DUSP10 (11751237_a_at) / RFU ID3 (11757404_x_at) / Fold change /veh ID3 (11757404_x_at) / RFU PLEKHG5 (11737974_s_at) / Fold change /veh PLEKHG5 (11737974_s_at) / RFU LRRC4B (11730491_at) / Fold change /veh LRRC4B (11730491_at) / RFU GIMAP4 (11747438_a_at) / Fold change /veh GIMAP4 (11747438_a_at) / RFU KRT8 (11758183_x_at) / Fold change /veh KRT8 (11758183_x_at) / RFU CNN1 (11734310_a_at) / Fold change /veh CNN1 (11734310_a_at) / RFU VPS37D (11726825_at) / Fold change /veh VPS37D (11726825_at) / RFU C10orf10 (11716522_x_at) / Fold change /veh C10orf10 (11716522_x_at) / RFU KIR2DL2 /// KIR2DL4 /// KIR2DL5A /// KIR2DL5B /// KIR2DS1 /// KIR2DS2 /// KIR2DS3 /// KIR2DS4 /// KIR3DL3 /// KIR3DL3 /// KIR3DS1 (11738374_at) / Fold change /veh KIR2DL2 /// KIR2DL4 /// KIR2DL5A /// KIR2DL5B /// KIR2DS1 /// KIR2DS2 /// KIR2DS3 /// KIR2DS4 /// KIR3DL3 /// KIR3DL3 /// KIR3DS1 (11738374_at) / RFU C1QL1 (11718748_at) / Fold change /veh C1QL1 (11718748_at) / RFU TMPRSS4 (11747572_a_at) / Fold change /veh TMPRSS4 (11747572_a_at) / RFU HAMP (11756126_x_at) / Fold change /veh HAMP (11756126_x_at) / RFU RNFT2 (11725882_a_at) / Fold change /veh RNFT2 (11725882_a_at) / RFU NR4A2 (11747474_a_at) / Fold change /veh NR4A2 (11747474_a_at) / RFU ABCC12 (11746883_a_at) / Fold change /veh ABCC12 (11746883_a_at) / RFU TMEM136 (11760407_x_at) / Fold change /veh TMEM136 (11760407_x_at) / RFU CLDN22 /// WWC2 (11732394_at) / Fold change /veh CLDN22 /// WWC2 (11732394_at) / RFU HLA-DPB1 (11760878_x_at) / Fold change /veh HLA-DPB1 (11760878_x_at) / RFU SPINT1 (11716480_a_at) / Fold change /veh SPINT1 (11716480_a_at) / RFU GAP43 (11754022_s_at) / Fold change /veh GAP43 (11754022_s_at) / RFU A4GNT (11735810_at) / Fold change /veh A4GNT (11735810_at) / RFU PRB3 (11715151_x_at) / Fold change /veh PRB3 (11715151_x_at) / RFU TUBB4B (11761932_at) / Fold change /veh TUBB4B (11761932_at) / RFU CAPN14 (11732068_a_at) / Fold change /veh CAPN14 (11732068_a_at) / RFU TMCC2 (11721928_a_at) / Fold change /veh TMCC2 (11721928_a_at) / RFU IRGQ (11745062_a_at) / Fold change /veh IRGQ (11745062_a_at) / RFU FAM174B (11720279_a_at) / Fold change /veh FAM174B (11720279_a_at) / RFU TMPRSS4 (11748680_a_at) / Fold change /veh TMPRSS4 (11748680_a_at) / RFU FAM212B (11763350_a_at) / Fold change /veh FAM212B (11763350_a_at) / RFU PLEKHG5 (11743358_a_at) / Fold change /veh PLEKHG5 (11743358_a_at) / RFU ZSCAN30 (11745921_a_at) / Fold change /veh ZSCAN30 (11745921_a_at) / RFU CMKLR1 (11741424_a_at) / Fold change /veh CMKLR1 (11741424_a_at) / RFU LOC101060620 /// MAPK8IP1 (11723275_at) / Fold change /veh LOC101060620 /// MAPK8IP1 (11723275_at) / RFU SPTSSB (11747773_x_at) / Fold change /veh SPTSSB (11747773_x_at) / RFU PRSS12 (11739890_at) / Fold change /veh PRSS12 (11739890_at) / RFU BIN1 (11741810_x_at) / Fold change /veh BIN1 (11741810_x_at) / RFU WNT11 (11732464_a_at) / Fold change /veh WNT11 (11732464_a_at) / RFU C10orf10 (11716521_a_at) / Fold change /veh C10orf10 (11716521_a_at) / RFU C5orf56 (11738089_at) / Fold change /veh C5orf56 (11738089_at) / RFU CYB561 (11721691_x_at) / Fold change /veh CYB561 (11721691_x_at) / RFU ANKRD19P (11752326_a_at) / Fold change /veh ANKRD19P (11752326_a_at) / RFU OR2T12 /// OR2T33 /// OR2T8 (11738714_s_at) / Fold change /veh OR2T12 /// OR2T33 /// OR2T8 (11738714_s_at) / RFU VCAN (11748164_a_at) / Fold change /veh VCAN (11748164_a_at) / RFU JSRP1 (11732532_at) / Fold change /veh JSRP1 (11732532_at) / RFU KRTAP10-11 (11738290_x_at) / Fold change /veh KRTAP10-11 (11738290_x_at) / RFU MYO3A (11730013_a_at) / Fold change /veh MYO3A (11730013_a_at) / RFU EBF3 (11725865_a_at) / Fold change /veh EBF3 (11725865_a_at) / RFU CAMK2N1 (11719241_x_at) / Fold change /veh CAMK2N1 (11719241_x_at) / RFU C5orf56 (11738088_a_at) / Fold change /veh C5orf56 (11738088_a_at) / RFU OLFML3 (11715873_a_at) / Fold change /veh OLFML3 (11715873_a_at) / RFU LOC100653217 /// NTM (11731650_a_at) / Fold change /veh LOC100653217 /// NTM (11731650_a_at) / RFU MAPK11 (11762145_a_at) / Fold change /veh MAPK11 (11762145_a_at) / RFU FIZ1 (11724087_x_at) / Fold change /veh FIZ1 (11724087_x_at) / RFU OASL (11726364_x_at) / Fold change /veh OASL (11726364_x_at) / RFU SOX15 (11748057_x_at) / Fold change /veh SOX15 (11748057_x_at) / RFU CD79A (11719716_a_at) / Fold change /veh CD79A (11719716_a_at) / RFU HIST1H1D (11736915_at) / Fold change /veh HIST1H1D (11736915_at) / RFU CASKIN2 (11723855_a_at) / Fold change /veh CASKIN2 (11723855_a_at) / RFU LOC730098 (11760151_x_at) / Fold change /veh LOC730098 (11760151_x_at) / RFU OR4N2 (11742367_at) / Fold change /veh OR4N2 (11742367_at) / RFU PRRT2 (11749266_a_at) / Fold change /veh PRRT2 (11749266_a_at) / RFU SNX32 (11753110_a_at) / Fold change /veh SNX32 (11753110_a_at) / RFU CDHR5 (11726645_a_at) / Fold change /veh CDHR5 (11726645_a_at) / RFU RCAN1 (11760418_a_at) / Fold change /veh RCAN1 (11760418_a_at) / RFU FAM167A (11723789_a_at) / Fold change /veh FAM167A (11723789_a_at) / RFU FAM26E (11764081_at) / Fold change /veh FAM26E (11764081_at) / RFU ISYNA1 (11749810_s_at) / Fold change /veh ISYNA1 (11749810_s_at) / RFU ACY1 (11761880_at) / Fold change /veh ACY1 (11761880_at) / RFU 11764098_at / Fold change /veh 11764098_at / RFU SAMD14 (11745864_x_at) / Fold change /veh SAMD14 (11745864_x_at) / RFU NPB (11741838_a_at) / Fold change /veh NPB (11741838_a_at) / RFU TMPRSS6 (11731388_a_at) / Fold change /veh TMPRSS6 (11731388_a_at) / RFU KRTAP10-2 (11738614_at) / Fold change /veh KRTAP10-2 (11738614_at) / RFU ARHGAP8 /// PRR5-ARHGAP8 (11727945_x_at) / Fold change /veh ARHGAP8 /// PRR5-ARHGAP8 (11727945_x_at) / RFU KRTAP5-7 /// NADSYN1 (11734609_at) / Fold change /veh KRTAP5-7 /// NADSYN1 (11734609_at) / RFU RASL12 (11751679_a_at) / Fold change /veh RASL12 (11751679_a_at) / RFU CDKN2B (11736163_a_at) / Fold change /veh CDKN2B (11736163_a_at) / RFU PRF1 (11729649_at) / Fold change /veh PRF1 (11729649_at) / RFU, ZNF638 /// ZNF638-IT1 / Fold change vs veh, ZNF638 /// ZNF638-IT1 / RFU, PANK3 / Fold change vs veh, PANK3 / RFU, SH3YL1 / Fold change vs veh, SH3YL1 / RFU, ZEB2 / Fold change vs veh, ZEB2 / RFU, NRIP1 / Fold change vs veh, NRIP1 / RFU, PTTG1IP / Fold change vs veh, PTTG1IP / RFU, CAPN2 / Fold change vs veh, CAPN2 / RFU, MED14 / Fold change vs veh, MED14 / RFU, SNORA58 / Fold change vs veh, SNORA58 / RFU, C1orf63 / Fold change vs veh, C1orf63 / RFU, LRRFIP1 / Fold change vs veh, LRRFIP1 / RFU, NDUFAF7 / Fold change vs veh, NDUFAF7 / RFU, SLC12A2 / Fold change vs veh, SLC12A2 / RFU, IBTK / Fold change vs veh, IBTK / RFU, ESF1 / Fold change vs veh, ESF1 / Fold change vs veh, TMEM50B / RFU, TAOK1 / Fold change vs veh, TAOK1 / RFU, ACBD3 / Fold change vs veh, ACBD3 / RFU, TMA16 / Fold change vs veh, TMA16 / RFU, RWDD3 / Fold change vs veh, RWDD3 / RFU, BCAT1 / Fold change vs veh, BCAT1 / RFU, EDEM3 / Fold change vs veh, EDEM3 / RFU, TMEM33 / Fold change vs veh, TMEM33 / RFU, WDR75 / Fold change vs veh, WDR75 / RFU, AHCTF1 / Fold change vs veh, AHCTF1 / RFU, TFRC / Fold change vs veh, TFRC / RFU, ZDHHC17 / Fold change vs veh, ZDHHC17 / RFU, NOM1 / Fold change vs veh, NOM1 / RFU, ARL8B / Fold change vs veh, ARL8B / RFU, ZBTB11 / Fold change vs veh, ZBTB11 / RFU, TAMM41 / Fold change vs veh, TAMM41 / RFU, KIAA1704 /// LOC100996395 / Fold change vs veh, KIAA1704 /// LOC100996395 / RFU, ING1 / Fold change vs veh, ING1 / RFU, TRMT61B / Fold change vs veh, TRMT61B / RFU, FUBP3 / Fold change vs veh, FUBP3 / RFU, TP53 / Fold change vs veh, TP53 / RFU, TNKS2 / Fold change vs veh, TNKS2 / RFU, ZFP14 / Fold change vs veh, ZFP14 / RFU, ACTR2 / Fold change vs veh, ACTR2 / RFU, PPP3R1 / Fold change vs veh, PPP3R1 / RFU, PIK3R1 / Fold change vs veh, PIK3R1 / RFU, HNRNPA1 / Fold change vs veh, HNRNPA1 / RFU, RNF170 / Fold change vs veh, RNF170 / RFU, ZNF28 / Fold change vs veh, ZNF28 / RFU, RNGTT / Fold change vs veh, RNGTT / RFU, OGT / Fold change vs veh, OGT / RFU, BRD1 / Fold change vs veh, BRD1 / RFU, MARS / Fold change vs veh, MARS / RFU, ZNF655 / Fold change vs veh, ZNF655 / RFU, FAHD1 / Fold change vs veh, FAHD1 / RFU, BDP1 / Fold change vs veh, BDP1 / RFU, LRRCC1 / Fold change vs veh, LRRCC1 / RFU, ARID1A / Fold change vs veh, ARID1A / RFU, ZNF146 / Fold change vs veh, ZNF146 / RFU, ZNF330 / Fold change vs veh, ZNF330 / RFU, GPN3 / Fold change vs veh, GPN3 / RFU, C9orf123 / Fold change vs veh, C9orf123 / RFU, N4BP2L2 / Fold change vs veh, N4BP2L2 / RFU, ARFIP1 / Fold change vs veh, ARFIP1 / RFU, FAM179B / Fold change vs veh, FAM179B / RFU, BCL10 / Fold change vs veh, BCL10 / RFU, UHRF1BP1L / Fold change vs veh, UHRF1BP1L / RFU, BET1 / Fold change vs veh, BET1 / RFU, CNOT2 / Fold change vs veh, CNOT2 / RFU, ZNF268 / Fold change vs veh, ZNF268 / Fold change vs veh, ZNF507 / RFU, DGCR2 / Fold change vs veh, DGCR2 / RFU, WDSUB1 / Fold change vs veh, WDSUB1 / Fold change vs veh, HSP90B1 /// MIR3652 / RFU, ADSS / Fold change vs veh, ADSS / RFU, GK / Fold change vs veh, GK / RFU, ZNF148 / Fold change vs veh, ZNF148 / RFU, TAF9 / Fold change vs veh, TAF9 / RFU, SLC1A5 / Fold change vs veh, SLC1A5 / RFU, SLMO2 / Fold change vs veh, SLMO2 / RFU, ABCC4 / Fold change vs veh, ABCC4 / RFU, LOC101060439 /// RAP1B / Fold change vs veh, LOC101060439 /// RAP1B / RFU, RFX7 / Fold change vs veh, RFX7 / RFU, GTPBP10 / Fold change vs veh, GTPBP10 / RFU, CNEP1R1 / Fold change vs veh, CNEP1R1 / RFU, BIVM-ERCC5 /// ERCC5 / Fold change vs veh, BIVM-ERCC5 /// ERCC5 / RFU, ILF3 / Fold change vs veh, ILF3 / RFU 11762660_at / Fold change /veh 11762660_at / RFU VCAN (11757783_s_at) / Fold change /veh VCAN (11757783_s_at) / RFU DDX43 (11728927_at) / Fold change /veh DDX43 (11728927_at) / RFU KRT8 (11758188_x_at) / Fold change /veh KRT8 (11758188_x_at) / RFU NKD1 (11759106_at) / Fold change /veh NKD1 (11759106_at) / RFU SRD5A1 (11742802_a_at) / Fold change /veh SRD5A1 (11742802_a_at) / RFU TPSAB1 /// TPSB2 (11721975_s_at) / Fold change /veh TPSAB1 /// TPSB2 (11721975_s_at) / RFU GSTM3 (11746129_a_at) / Fold change /veh GSTM3 (11746129_a_at) / RFU IL23R (11737362_x_at) / Fold change /veh IL23R (11737362_x_at) / RFU TMEM51 (11727254_a_at) / Fold change /veh TMEM51 (11727254_a_at) / RFU PIWIL2 (11732686_x_at) / Fold change /veh PIWIL2 (11732686_x_at) / RFU ORM1 (11744905_x_at) / Fold change /veh ORM1 (11744905_x_at) / RFU CCDC152 (11743942_at) / Fold change /veh CCDC152 (11743942_at) / RFU ECM1 (11717891_a_at) / Fold change /veh ECM1 (11717891_a_at) / RFU IL23R (11748794_a_at) / Fold change /veh IL23R (11748794_a_at) / RFU TNFAIP8L3 (11732012_x_at) / Fold change /veh TNFAIP8L3 (11732012_x_at) / RFU MBOAT4 (11741988_at) / Fold change /veh MBOAT4 (11741988_at) / RFU 11764193_at / Fold change /veh 11764193_at / RFU TMEM53 (11763286_at) / Fold change /veh TMEM53 (11763286_at) / RFU MAGEB2 (11727129_at) / Fold change /veh MAGEB2 (11727129_at) / RFU TMEM200A (11744735_a_at) / Fold change /veh TMEM200A (11744735_a_at) / RFU CCDC152 (11751479_a_at) / Fold change /veh CCDC152 (11751479_a_at) / RFU FAM211A (11726209_a_at) / Fold change /veh FAM211A (11726209_a_at) / RFU RGS16 (11746705_a_at) / Fold change /veh RGS16 (11746705_a_at) / RFU VCAN (11755009_s_at) / Fold change /veh VCAN (11755009_s_at) / RFU RHOB (11743442_s_at) / Fold change /veh RHOB (11743442_s_at) / RFU RGS16 (11720943_a_at) / Fold change /veh RGS16 (11720943_a_at) / RFU RGS16 (11720944_at) / Fold change /veh RGS16 (11720944_at) / RFU, VPS4B / Fold change vs veh, VPS4B / RFU, CREB1 / Fold change vs veh, CREB1 / RFU, DNAJC13 / Fold change vs veh, DNAJC13 / RFU, GNAQ / Fold change vs veh, GNAQ / RFU, CDK5R1 / Fold change vs veh, CDK5R1 / RFU, ZRANB3 / Fold change vs veh, ZRANB3 / RFU, CUL4A / Fold change vs veh, CUL4A / RFU, CCNY / Fold change vs veh, CCNY / RFU, UFL1 / Fold change vs veh, UFL1 / RFU, COG3 / Fold change vs veh, COG3 / RFU, DIAPH2 / Fold change vs veh, DIAPH2 / RFU, SKA2 / Fold change vs veh, SKA2 / RFU, AFF3 / Fold change vs veh, AFF3 / RFU, LMF1 / Fold change vs veh, LMF1 / RFU, IPO11 / Fold change vs veh, IPO11 / RFU, DFFB / Fold change vs veh, DFFB / RFU, FOXP1 / Fold change vs veh, FOXP1 / RFU, CARD8 / Fold change vs veh, CARD8 / RFU, STRN3 / Fold change vs veh, STRN3 / RFU, ADK / Fold change vs veh, ADK / RFU, RASSF2 / Fold change vs veh, RASSF2 / RFU, WIPF1 / Fold change vs veh, WIPF1 / RFU, LARP1B / Fold change vs veh, LARP1B / RFU, RASA1 / Fold change vs veh, RASA1 / RFU, RB1 / Fold change vs veh, RB1 / RFU, PPFIA1 / Fold change vs veh, PPFIA1 / RFU, MAT2A / Fold change vs veh, MAT2A / RFU, CCT5 / Fold change vs veh, CCT5 / RFU, WDR92 / Fold change vs veh, WDR92 / RFU, CUX1 / Fold change vs veh, CUX1 / RFU, TTC7A / Fold change vs veh, TTC7A / RFU, TMEM135 / Fold change vs veh, TMEM135 / RFU, DEPTOR / Fold change vs veh, DEPTOR / RFU, CPM / Fold change vs veh, CPM / RFU, DNAJB6 / Fold change vs veh, DNAJB6 / RFU, CACNA2D3 / Fold change vs veh, CACNA2D3 / RFU, DTX4 / Fold change vs veh, DTX4 / RFU, TFCP2 / Fold change vs veh, TFCP2 / RFU, GMCL1 /// GMCL1P1 / Fold change vs veh, GMCL1 /// GMCL1P1 / RFU, AEBP2 / Fold change vs veh, AEBP2 / RFU, SNHG1 /// SNORD22 /// SNORD25 /// SNORD26 /// SNORD27 /// SNORD28 /// SNORD29 /// SNORD31 / Fold change vs veh, SNHG1 /// SNORD22 /// SNORD25 /// SNORD26 /// SNORD27 /// SNORD28 /// SNORD29 /// SNORD31 / Fold change (Aza/veh), C12orf56 (ProbeSet 11735607_a_at) / Fold change (ACY-1035/veh), C12orf56 (ProbeSet 11735607_a_at) / Fold change (Aza/veh), FGFR1OP (ProbeSet 11751329_s_at) / Fold change (ACY-1035/veh), FGFR1OP (ProbeSet 11751329_s_at) / Fold change (Aza/veh), VPS36 (ProbeSet 11739960_a_at) / Fold change (ACY-1035/veh), VPS36 (ProbeSet 11739960_a_at) / RFU SYPL1 (11715823_x_at) / Fold change /veh SYPL1 (11715823_x_at) / RFU IGFBP7 (11715501_s_at) / Fold change /veh IGFBP7 (11715501_s_at) / RFU REEP3 (11722064_at) / Fold change /veh REEP3 (11722064_at) / RFU IGLL1 (11728026_x_at) / Fold change /veh IGLL1 (11728026_x_at): dose or concentration left out as unconfirmed
Details: ProbeSet 11753055_s_at; LIST B

Q: For Nc1ncn([C@@H]2O[C@H](CO)[C@@H](O)[C@H]2O)c(=O)n1 [azacitidine], which “RFU, LOC101060439 /// RAP1B” value is on record?
A: The value was 558.59 RFU.

From paper PMC5218480 (PLoS ONE, 2017)
